Assays:
anti-NAG antibodies = assay: Western analysis of H-Ras modified by FTase with aniline analogs, probed with Anti-NAG; format: binding, rabbits; conditions: H-Ras reacted with analog by FTase, FIG. 11B
GGTaseI [1] = assay: GGTaseI protein substrate modification of H-Ras; format: biochemical; conditions: relatively large amount of GGTaseI, Western blot FIG. 17A
GGTaseI [2] = target: GGTaseI (Homo sapiens, UniProt P49354+P53609); assay: GGTaseI continuous spectrofluorometric assay with dansylated-GCaaX peptides; format: biochemical; conditions: for Substrate for GGTaseI with CVIL peptide: dansylated-GCVIL peptide; for Substrate for GGTaseI with CVIM peptide: dansylated-GCVIM peptide; for Substrate for GGTaseI: peptide not specified
Protocol: The kinetic constants Km^peptide and kcat with GGPP, and the analogs with each peptide are determined in triplicate measurements using a continuous spectrofluorometric assay adapted for a 96-well plate. The following assay components are assembled in individual wells of a 96-well plate and incubated at 30° C. for 20 minutes: 180 μL of assay butler (52 mM Tris-HCl, 12 mM MgCl2, 12 μM ZnCl2 pH 7.4), 40 μL of detergent (0.125% n-dodecyl-β-D-maltoside in assay buffer), 40 μL of reducing agent (50 mM DTT in assay buffer) 20 μL of GGPP or analog (200 μM in 25 mM NH4HCO3) and 20 μL of N-dansyl-GCaaX peptide (variable concentration). Fluorescence is detected using a time based scan at 30° C. for 120 minutes. The velocity of each reaction is determined by converting the rate of increase in fluorescence intensity units (FLU/s) to μM/s with equation 1. vi=(R·P)/(FMAX−FMIN) Equation 1
Where vi is the velocity of the reaction in μM/s. R is the rate of the reaction in FLU/s. P is equal to the concentration of modified product in μM (see below). FMAX is the fluorescence intensity of fully modified product. FMIN is the fluorescence of a reaction mixture that contained 20 μL of assay buffer in the place of GGTaseI. Complete modification of peptides is assumed when fluorescence stabilized for more than 10 minutes and is confirmed by RP-HPLC analysis of the reaction mixture.
Final analysis peptide concentrations are chosen based on preliminary determination of the Km^peptide with 0.5, 1, 5 and 10 μM dansyl-GCaaX concentrations (see below). The final analysis used 8 peptide concentrations which are: ⅙, ⅕, ¼, ½, ¾, 1, 2, and 3 times the estimated Km^peptide. The reaction is then initiated by the addition of 20 μL of GGTaseI (final 10 nM). Fluorescence enhancement is determined as described above.
Complete modification of peptides is assumed when fluorescence stabilized for more than 10 minutes and is confirmed by RP-HPLC analysis of the reaction mixture. […] Alternatively the extent of input peptide modified is determined by RP-HPLC analysis of the dansyl moiety peak absorbance corresponding to the unmodified and modified peptides. The percent of modified peptide relative to the total input peptide is used to calculate the concentration of product in the mixture.
The velocities of the reactions are plotted against the concentration of peptide and are fit to the Michaelis-Menten equation (Equation 2) to give the apparent kcat (appkcat) and Km^peptide (appKmpeptide) values. Where et is the total enzyme concentration and [Pep] is the total input peptide. The kcat/Km^peptide value is derived from a Lineweaver-Burke plot of the same data points. vi/et=(appkcat*[Pep])/(appKm^peptide+[Pep]) Equation 2

[3] = test system: H460 (lung cancer cell line) and MCF7 (breast cancer cell line) cells; assay: Cell labeling with AFOH; format: cell-based; conditions: 30 μM AFOH overnight, FIG. 17B
Protocol: Plates are coated with poly-L-Lysine and seeded with in Dulbecco's modified Eagle's medium with 5% fetal bovine serum. The cells are then treated with DMSO as a vehicle, or 30 μM AFOH is added and incubated at 37° C. overnight. Medium is then removed and cells are extracted into 500 μL of RIPA buffer containing Protease Inhibitor cocktail I (calbiochem). The supernatant is removed and used for western blotting.
Protein concentration is determined using a Bradford reagent kit (Pierce) with 1:100 dilutions of the cell lysates. The proteins from the GGTaseI reaction mixtures or cell lysates are then separated using 12% SDS-polyacrylamide gels followed by transfer to nitrocellulose membranes. The membranes are incubated in blocking buffer PBS Casein and Tween buffer for one hour at room temperature, after which the following sequential steps are used: incubation with anti-AG or anti-NAG to 1:10,000 in PCT for one hour; 3×15 minute washes with vigorous shaking in PBS Tween buffer; incubation at room temperature one hour with goat anti-rabbit horseradish peroxidase-conjugated secondary antibody (Zymed) at a dilution of 1:20,000 in PCT buffer; and four 15 minute washes with PT buffer. The membranes are then subjected to enhanced chemiluminescene detection by incubation in 20 mL of detection buffer (Pierce Super Signal) for one minute.

anti-AG antibody = assay: Western analysis of H-Ras modified by FTase with aniline analogs, probed with Anti-AG; format: binding, rabbits; conditions: H-Ras reacted with analog by FTase, FIG. 11A
Protocol: (§1) Cells are harvested by scraping into 300 μl phosphate buffered saline containing protease inhibitor cocktail set 1 (calbiochem), followed by sonication on ice. Protein concentration is determined using a Bradford reagent kit (Pierce). The proteins from the FTase reaction mixtures or cell lysates are then separated using 12% SDS-polyacrylamide gels followed by transfer to nitrocellulose membranes. The membranes are incubated in blocking buffer PCT (see ELISA) for one hour at room temperature, after which the following steps are used: incubation with Anti-AG 1:1000 to 1:10,000 in PCT for one hour; 3×15 minute washes with vigorous shaking in PT buffer (see ELISA); incubation at room temperature one hour with goat anti-rabbit horseradish peroxidase-conjugated secondary antibody (Zymed) at a dilution of 1:20,000 in PCT buffer; and four 15 minute washes with PT buffer. The membranes are then subjected to enhanced chemiluminescence detection by incubation in 20 mL of detection buffer (Pierce Super Signal) for one minute.

FTase [4] = target: T1, FTase (Homo sapiens, UniProt P49354+P49356); assay: FTase catalyzed in vitro modification of RDJ2 and H-Ras; format: biochemical; conditions: bacterially expressed proteins, intact Ca1a2X motifs
Protocol: 2 μg of recombinant bacterially expressed RDJ2 is incubated with 20 μM AGPP or FPP and 5 μg FTase in 50 μL of TrisHCl buffer (pH=7.4). […] The reactions are incubated for 30 min at 37° C., boiled with SDS and PAGE performed using the protein concentrations indicated on the blots.

FTase [5] = target: T1, FTase; conditions: in vitro; cited from earlier work
HEK-293 cells = assay: AGOH labeling and FTI inhibition of label in HEK-293 cells; format: cell-based, human
Protocol: Plates are coated with poly-L-Lysine and seeded with HEK-cells in Dulbecco's modified Eagle's medium with 5% fetal bovine serum. Cells are incubated in medium containing 30 μM lovostatin and 10 μM GGOH for 24 hrs. The media is poured off then replenished with media without lovostatin and GGOH and are treated with 3 μM FTI-277 (calbiochem), 20 μM GGTI-2147 (calbiochem) or no inhibitor and incubated at 37° C. for 1 hour. DMSO as a vehicle, or 100 μM AGOH is then added and incubated at 37° C. for two hours. Medium is then removed and cells are extracted into 300 μL PBS containing Protease Inhibitor cocktail set 1 (Calbiochem). The samples are sonicated and centrifuged for 5 minutes. The supernatant is removed and used for western blotting.
Cells are harvested by scraping into 300 μl phosphate buffered saline containing protease inhibitor cocktail set 1 (calbiochem), followed by sonication on ice. Protein concentration is determined using a Bradford reagent kit (Pierce). The proteins from the FTase reaction mixtures or cell lysates are then separated using 12% SDS-polyacrylamide gels followed by transfer to nitrocellulose membranes. […]

HEK-cells = assay: AGOH incorporation into unblocked cells; format: cell-based, human; conditions: 30 μM AGOH, no lovastatin blockade
Protocol: Plates are coated with poly-L-Lysine and seeded with HEK-cells in Dulbecco's modified Eagle's medium with 5% fetal bovine serum. The cells ware then treated with DMSO as a vehicle, or 30 μM AGOH 5a is then added and incubated at 37° C. for the indicated time points. Medium is then removed and cells are extracted into 300 μL PBS containing Protease Inhibitor cocktail set 1 (Calbiochem). The samples are sonicated and centrifuged for 5 minutes. The supernatant is removed and used for western blotting.
as §1, with “The membranes are then subjected to enhanced chemiluminescence detection by incubation in 20 mL of detection buffer (Pierce Super Signal) for one minute.” left out

[6] = test system: human embryonic kidney (HEK-293) cells; assay: Acute cytoxicity of anilinogeraniol in HEK-293 cells; format: cell-based; conditions: up to 100 μM, three days, relative to controls
From the text: Farnesol, geranylgeraniol and a number of farnesol analogues become incorporated into cellular proteins when added to the culture media of growing cells. See e.g., Crick, et al. (1995) Biochem Biophys Res Commun 211, 590-9; Crick, et al. (1997) Biochem Biophys Res Commun 237, 483-7. These compounds are thought to traverse the plasma membrane and act as a substrate for sequential kinase reactions to give FPP, GGPP or the diphosphate analogue which can be then be utilized by FTase or GGTaseI to appropriately modify cellular proteins. Thai, et al. (1999) Proc Natl Acad Sci U S A 96, 13080-5. The kinases involved in the phosphorylation reactions have been characterized in plants, but not in mammalian cells. […] See Chehade, et al. (2000) J. Org. Chem. 65, […]. It is thought that nilinogeraniol might also cross the plasma membrane of cells, be converted to the diphosphate and become incorporated into proteins by FTase. However, it is also possible that anilinogeraniol might be toxic to mammalian cells. Accordingly, the acute cytoxicity of anilinogeraniol is examined by incubating human embryonic kidney (HEK-293) cells with up to 100 μM anilinogeraniol for three days.

In the case of “para-cyano-anilinogeranyl diphosphate [pCN-AGPP]”, the “Recognition of analog-modified H-Ras by anti-NAG antibodies” value (anti-NAG antibodies) was “recognized”.
In the case of CC(=CCCC(C)=CCOP(=O)(O)OP(=O)(O)O)CCC=C(C)CNc1ccc([N+](=O)[O-])cc1 [NAFPP, pNO2-anilinofarnesyl diphosphate], the “Incorporation of analog into H-Ras in vitro” value (GGTaseI [1]) was “incorporated into the protein”, the “Substrate for GGTaseI with CVIL peptide” value (GGTaseI [2]) was “are substrates when CVIL is the target” and the “Substrate for GGTaseI with CVIM peptide” value (GGTaseI [2]) was “none of the AGPP analogs or NAFPP are substrates”. For the same compound, the “Substrate for GGTaseI” value (GGTaseI [2]) was “both substrates”.
With CC(=CCO)CCC=C(C)CCC=C(C)CNc1ccccc1 [AFOH, Anilinofarnesiol] the “AFOH incorporation into cellular proteins” value [3] was “does appear to be incorporated into proteins”.
In the case of “ortho-fluoro-anilinogeranyl diphosphate [oF-AGPP]”, the “Recognition of analog-modified H-Ras by anti-AG antibody” value (anti-AG antibody) was “able to cross-react”.
For “meta-methyl-anilinogeranyl diphosphate [mMe-AGPP]”, the “Recognition of analog-modified H-Ras by anti-AG antibody” value (anti-AG antibody) was “able to cross-react”.
For C/C(=C\COP(=O)(O)OP(=O)(O)O)CC/C=C(\C)CNc1ccc([N+](=O)[O-])cc1 [NAGPP, para-nitro-anilinogeranyl diphosphate], the “FTase catalyzed in vitro modification of RDJ2 and Q61L H-Ras” value (FTase [4]) was “provided lipid thioether-linked proteins”.
In the case of “meta-fluoro-anilinogeranyl diphosphate [mF-AGPP]”, the “Recognition of analog-modified H-Ras by anti-AG antibody” value (anti-AG antibody) was “able to cross-react”.
For C/C(=C\COP(=O)(O)OP(=O)(O)O)CC/C=C(\C)CNc1ccccc1 [AGPP, anilinogeranyl diphosphate], the “FTase catalyzed in vitro modification of RDJ2 and Q61L H-Ras” value (FTase [4]) is listed as “provided lipid thioether-linked proteins” and the “Transferable by FTase to a CVLS substrate” value (FTase [5]) is listed as “transferable”.
In the case of CC(=CCC/C(C)=C/COP(=O)(O)OP(=O)(O)O)CNc1ccc(F)cc1 [pF-AGPP, para-fluoro-anilinogeraniol diphosphate], the “Recognition of analog-modified H-Ras by anti-AG antibody” value (anti-AG antibody) was “able to cross-react”.
For COC(=O)[C@H](CCSC)NC(=O)c1ccc(NC[C@@H](N)CS)cc1-c1ccccc1 [FTI-277, reference compound], the “Effect of inhibitor on anilinogeranyl modification of cellular proteins” value (HEK-293 cells; cells incubated with AGOH, 3 μM FTI-277 or 20 μM GGTI-2147) was “no anilinogeranyl modified proteins are detected”.
For C/C(=C\CO)CC/C=C(\C)CNc1ccccc1 [AGOH, Anilinogeranyl alcohol], the “Competition with endogenous pools of FPP” value (HEK-cells) was “competitive with the endogenous pools of FPP”, the “Onset of anilinogeranyl incorporation into proteins” value (HEK-cells; FIG. 14) was “within two hours” and the Cell growth [6] was “no decrease in cell growth”. For the same compound, the Morphological changes [6] was “no morphological changes” and the “Anilinogeranyl modified proteins detected with Anti-AG in cell extracts” value (HEK-293 cells; cells blocked with lovostatin and treated with GGOH, 100 μM AGOH, FIG. 12) was “numerous anilinogeranyl modified proteins”.
For anilinofarnesyl diphosphate [AFPP], the “Incorporation of analog into H-Ras in vitro” value (GGTaseI [1]) was “incorporated into the protein” and the “Substrate for GGTaseI” value (GGTaseI [2]) was “both substrates”.
For “meta-bromo-anilinogeranyl diphosphate [mBr-AGPP]”, the “Recognition of analog-modified H-Ras by anti-AG antibody” value (anti-AG antibody) was “able to cross-react”.
In the case of “para-methyl-anilinogeranyl diphosphate [pMe-AGPP]”, the “Recognition of analog-modified H-Ras by anti-AG antibody” value (anti-AG antibody) was “able to cross-react”.
With CC(C)=CCC/C(C)=C/CC/C(C)=C/CC/C(C)=C/COP(=O)(O)OP(=O)(O)O [GGPP, geranylgeranyl diphosphate, reference compound] the “Substrate for GGTaseI with CVIL peptide” value (GGTaseI [2]) was “confirmed to be a substrate” and the “Substrate for GGTaseI with CVIM peptide” value (GGTaseI [2]) was “confirmed to be a substrate”.
In the case of “meta-cyano-anilinogeranyl diphosphate [mCN-AGPP]”, the “Recognition of analog-modified H-Ras by anti-AG antibody” value (anti-AG antibody) was “able to cross-react” and the “Recognition of analog-modified H-Ras by anti-NAG antibodies” value (anti-NAG antibodies) was “recognized”.
With “para-bromo-anilinogeranyl diphosphate [pBr-AGPP]” the “Recognition of analog-modified H-Ras by anti-AG antibody” value (anti-AG antibody) was “able to cross-react” and the “Recognition of analog-modified H-Ras by anti-NAG antibodies” value (anti-NAG antibodies) was “recognized”.

— patent publication US7745589B1, “Antibodies and unnatural substrates of prenylation enzymes for use in detecting and isolating prenylated proteins” (University of Kentucky Research Foundation, priority 2005, dated 2010)
